Active and inactive are the calls of the source. The rule behind the calls is not given here.

In the series the test system is CCRIS mutagenicity, Ames/micronucleus/aberration tests. The series is described as follows: CCRIS mutagenicity studies.

For `c1ccncc1`, the mutagenic call reads like this: (Test System: AMES SALMONELLA TYPHIMURIUM, Strain/Indicator: TA98, Metabolic Activation: HAMSTER LIVER S-9, AROCLOR 1254, 10%, Method: PREINCUBATION) “inactive; negative”; (Test System: AMES SALMONELLA TYPHIMURIUM, Strain/Indicator: TA98, Metabolic Activation: NONE, Method: PREINCUBATION) “inactive; negative”; (Test System: AMES SALMONELLA TYPHIMURIUM, Strain/Indicator: TA98, Metabolic Activation: RAT LIVER S-9, AROCLOR 1254, 10%, Method: PREINCUBATION) “inactive; negative”; (Test System: AMES SALMONELLA TYPHIMURIUM, Strain/Indicator: TA98, Metabolic Activation: RAT LIVER S-9, PHENOBARBITAL AND BETA-NAPHTHOFLAVONE, Method: PREINCUBATION) “inactive; negative”; (Test System: AMES SALMONELLA TYPHIMURIUM, Strain/Indicator: TA98, Metabolic Activation: RAT, LIVER, S-9, AROCLOR 1254, Method: PREINCUBATION) “inactive; negative”; (Test System: AMES SALMONELLA TYPHIMURIUM, Strain/Indicator: TA100, Metabolic Activation: HAMSTER LIVER S-9, AROCLOR 1254, 10%, Method: PREINCUBATION) “inactive; negative”. In addition, the mutagenic call reads like this: (Test System: AMES SALMONELLA TYPHIMURIUM, Strain/Indicator: TA100, Metabolic Activation: NONE, Method: PREINCUBATION) “inactive; negative”; (Test System: AMES SALMONELLA TYPHIMURIUM, Strain/Indicator: TA100, Metabolic Activation: RAT LIVER S-9, AROCLOR 1254, 10%, Method: PREINCUBATION) “inactive; negative”; (Test System: AMES SALMONELLA TYPHIMURIUM, Strain/Indicator: TA100, Metabolic Activation: RAT LIVER S-9, PHENOBARBITAL AND BETA-NAPHTHOFLAVONE, Method: PREINCUBATION) “inactive; negative”; (Test System: AMES SALMONELLA TYPHIMURIUM, Strain/Indicator: TA100, Metabolic Activation: RAT, LIVER, S-9, AROCLOR 1254, Method: PREINCUBATION) “inactive; negative”; (Test System: AMES SALMONELLA TYPHIMURIUM, Strain/Indicator: TA102, Metabolic Activation: NONE, Method: PREINCUBATION) “inactive; negative”; (Test System: AMES SALMONELLA TYPHIMURIUM, Strain/Indicator: TA102, Metabolic Activation: RAT, LIVER, S-9, AROCLOR 1254, Method: PREINCUBATION) “inactive; negative”. Moreover, the mutagenic call was “inactive; negative” (Test System: AMES SALMONELLA TYPHIMURIUM, Strain/Indicator: TA1535, Metabolic Activation: HAMSTER LIVER S-9, AROCLOR 1254, 10%, Method: PREINCUBATION); “inactive; negative” (Test System: AMES SALMONELLA TYPHIMURIUM, Strain/Indicator: TA1535, Metabolic Activation: NONE, Method: PREINCUBATION); “inactive; negative” (Test System: AMES SALMONELLA TYPHIMURIUM, Strain/Indicator: TA1535, Metabolic Activation: RAT LIVER S-9, AROCLOR 1254, 10%, Method: PREINCUBATION); “inactive; negative” (Test System: AMES SALMONELLA TYPHIMURIUM, Strain/Indicator: TA1535, Metabolic Activation: RAT LIVER S-9, PHENOBARBITAL AND BETA-NAPHTHOFLAVONE, Method: PREINCUBATION); “inactive; negative” (Test System: AMES SALMONELLA TYPHIMURIUM, Strain/Indicator: TA1537, Metabolic Activation: HAMSTER LIVER S-9, AROCLOR 1254, 10%, Method: PREINCUBATION); “inactive; negative” (Test System: AMES SALMONELLA TYPHIMURIUM, Strain/Indicator: TA1537, Metabolic Activation: NONE, Method: PREINCUBATION). In addition, the mutagenic call runs as follows: (Test System: AMES SALMONELLA TYPHIMURIUM, Strain/Indicator: TA1537, Metabolic Activation: RAT LIVER S-9, AROCLOR 1254, 10%, Method: PREINCUBATION) “inactive; negative”; (Test System: AMES SALMONELLA TYPHIMURIUM, Strain/Indicator: TA1537, Metabolic Activation: RAT LIVER S-9, PHENOBARBITAL AND BETA-NAPHTHOFLAVONE, Method: PREINCUBATION) “inactive; negative”; (Test System: E.COLI, Strain/Indicator: WP2UVRA, Metabolic Activation: NONE, Method: PREINCUBATION) “inactive; negative”; (Test System: E.COLI, Strain/Indicator: WP2UVRA, Metabolic Activation: RAT LIVER S-9, PHENOBARBITAL AND BETA-NAPHTHOFLAVONE, Method: PREINCUBATION) “inactive; negative”; (Test System: MOUSE LYMPHOMA, Strain/Indicator: L5178Y (TK+/TK-), Metabolic Activation: NONE, Method: SUSPENSION/PLATE) “inactive; negative”; (Test System: MOUSE LYMPHOMA, Strain/Indicator: L5178Y (TK+/TK-), Metabolic Activation: RAT LIVER S-9, AROCLOR 1254, Method: SUSPENSION/PLATE) “inactive; negative”. The mutagenic call (Test System: UDS MOUSE HEPATOCYTES, Strain/Indicator: THYMIDINE INCORPORATION, Metabolic Activation: NONE, Method: IN VIVO/AUTORADIOGRAPHY) is “inactive; negative”.

With `O=[N+]([O-])c1ccc(NO)cc1`, the mutagenic call is “active; positive” (Test System: AMES SALMONELLA TYPHIMURIUM, Strain/Indicator: TA98(NR), Metabolic Activation: NONE, Method: STANDARD PLATE); “inactive; negative” (Test System: AMES SALMONELLA TYPHIMURIUM, Strain/Indicator: TA98(NR), Metabolic Activation: RAT, LIVER, S-9, AROCLOR 1254, Method: STANDARD PLATE); “active; positive” (Test System: AMES SALMONELLA TYPHIMURIUM, Strain/Indicator: TA98, Metabolic Activation: NONE, Method: STANDARD PLATE); “active; positive” (Test System: AMES SALMONELLA TYPHIMURIUM, Strain/Indicator: TA98, Metabolic Activation: RAT, LIVER, S-9, AROCLOR 1254, Method: STANDARD PLATE); “active; positive” (Test System: AMES SALMONELLA TYPHIMURIUM, Strain/Indicator: TA100, Metabolic Activation: NONE, Method: STANDARD PLATE); “active; positive” (Test System: AMES SALMONELLA TYPHIMURIUM, Strain/Indicator: TA1535, Metabolic Activation: NONE, Method: STANDARD PLATE). Further, the mutagenic call was “active; positive” (Test System: AMES SALMONELLA TYPHIMURIUM, Strain/Indicator: TA1538(NR), Metabolic Activation: NONE, Method: STANDARD PLATE); “active; positive” (Test System: AMES SALMONELLA TYPHIMURIUM, Strain/Indicator: TA1538(NR), Metabolic Activation: RAT, LIVER, S-9, AROCLOR 1254, Method: STANDARD PLATE); “active; positive” (Test System: AMES SALMONELLA TYPHIMURIUM, Strain/Indicator: TA1538, Metabolic Activation: NONE, Method: STANDARD PLATE); “active; positive” (Test System: AMES SALMONELLA TYPHIMURIUM, Strain/Indicator: TA1538, Metabolic Activation: RAT, LIVER, S-9, AROCLOR 1254, Method: STANDARD PLATE); “active; positive” (Test System: E. COLI, Strain/Indicator: WP2 UVRA(P), Metabolic Activation: NONE, Method: STANDARD PLATE); “active; positive” (Test System: E. COLI, Strain/Indicator: WP2 UVRA, Metabolic Activation: NONE, Method: FLUCTUATION TEST). Also, the mutagenic call (Test System: E. COLI, Strain/Indicator: WP2 UVRA, Metabolic Activation: NONE, Method: STANDARD PLATE) is “inactive; negative”.
